Experimental data from patent US20230014445A1, “ALLOSTERIC CHROMENONE INHIBITORS OF PHOSPHOINOSITIDE 3-KINASE (PI3K) FOR THE TREATMENT OF DISEASE” (Petra Pharma Corporation, priority 2021, published 2023).
pIC50: −log10 of the molar value. Like-named read-outs stand apart in the source and are kept apart here.

Key:
[1] = target: PI3K-α (PIK3CA) in MDA-MB-453 cells (Homo sapiens, UniProt P42336); test: PI3K-Alpha Kinase (PIK3CA) activity in vitro cell based assay (AlphaLisa SureFire)
Description: PI3K-Alpha Kinase (PIK3CA) Activity In Vitro Cell Based Assay and Determining IC50 Values for Inhibitors
The MDA-MB-453 (ATCC-HTB-131) cell line was obtained from the American Type Culture Collection (Manassas, Va.). Cells were maintained in Dulbecco's Modified Eagle Media (DMVEM, Gibco 11965-092) supplemented with 10% Fetal Bovine Serum, heat inactivated (FBS HI, Gibco 10082-147), 1× non-essential amino acids (NEAA, Gibco 11140-050), and 1 mM sodium pyruvate (Gibco 11360-070). Cultures were maintained in a humidified incubator at 37° C. under […].
For compound testing in 0% FBS, MDA-MB-453 cells were seeded at a density of 1.5×10^4 cells per well in white 384-well plates in 20 μl of Minimum Essential Media (MEM) assay media with 1×NEAA, 1 mM sodium pyruvate, and 1 μg/mL human insulin (Sigma I9278). Compounds dissolved in 10 mM stock solutions in DMSO were serially diluted 1:3 in DMSO to generate a 10-point dilution series and plated using an acoustic liquid handler system (Echo 550 Series Liquid Handler, Labcyte). A 5× intermediate compound dilution plate in MEM with 1×NEAA and 1 mM sodium pyruvate (150 μM starting compound concentration in 1.5% DMSO) was then prepared. Five μl of the intermediate serially diluted compounds were added to the cell plate to final concentrations ranging from […] in 0.3% DMSO. 0.3% DMSO alone was used to establish the maximum (MAX) signal and GDC-0032 at a final concentration of 1 μM was used as a reference compound for the minimum (MIN) signal. After 3 hours treatment, the medium was removed, and the cells lysed in 10 μL of 1× SureFire Lysis buffer with shaking for 10 minutes at room temperature. The Acceptor Mix (Reaction Buffer 1+Reaction Buffer 2+Activation Buffer+SureFire Ultra Acceptor Beads) was prepared by diluting Activation buffer 25-fold in combined Reaction Buffer 1 and Reaction Buffer 2. The Acceptor beads were diluted 50-fold in the combined Reaction Buffers. Five μL of Acceptor Mix was added to each well, the plate was sealed and covered with foil and incubated for 1 hour at room temperature. The Donor Mix (dilution buffer+SureFire Ultra Donor Beads) was prepared by diluting Donor Beads 50-fold in dilution buffer. Five μL of the Donor Mix was added to each well and the plate sealed and covered with foil and incubated for 1 hour at room temperature in the dark. The plates were read on a Neo2 plate reader instrument from Biotek using standard AlphaLisa settings.
Compounds were tested in duplicate and the average % inhibition at each compound concentration was used to generate a single dose response curve. The data were processed using the Genedata-Screener tool. Relative IC50 values were determined using luminescence units by calculating percent inhibition with respect to the in-plate “MIN” (GDC-0032 reference control) and “MAX” (DMSO) controls. The data was analyzed using a 4-parameter nonlinear logistic equation (four-parameter logistic concentration-response curve):
Y=bottom+[(top−bottom)/1+(X/IC50)slope]
where Y=% inhibition, X=concentration of inhibitor, bottom=minimum value of y attained by curve-fit, top=maximum value of y attained by curve-fit and slope=steepness of curve at the IC50.
% Inhibition=[(signal at X−median Min)/(median Max−median Min)]×100
IC50: concentration of compound that reduces a given response (ligand binding, enzyme response) by 50%. Relative IC50: concentration giving half the compound's maximum response.
For IC50 values shown in Table B, “A” means IC50<50 nM; “B” means IC50 ranging between 50 nM and 100 nM; “C” means IC50 ranging between 100 nM and 500 nM; “D” means IC50>500 nM.

[2] = target: T1, human full length PIK3KA Wild-type (p110α/p85α complex) (Homo sapiens, UniProt P42336); test: PI3K-Alpha Kinase (PIK3CA) biochemical activity, wild-type (ADP-Glo); conditions: Soy PI lipid substrate, 20 uM ATP
T1 construct: Recombinant, catalytically active human full length PIK3KA Wild-type and H1047R mutant were purchased; 6xHis (N); purchased EMD Millipore Sigma 14-602M
Summary of the method: (§1)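 ADP formation, measured by ADP-Glo luminescence after reaction to about 10% ATP conversion at 27° C., gives 10-point 4-parameter IC50 curves normalized to no-enzyme and DMSO controls. Lipid substrate was PIP2diC8 or Soy PI at 50 uM, with 20 uM ATP. WT or H1047R p110α/p85α complex (1-5 nM) was preincubated 1 h with compound.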

[3] = target: T2, human full length PIK3KA H1047R mutant (p110α/p85α complex) (Homo sapiens, UniProt P42336, H1047R); test: PI3K-Alpha Kinase (PIK3CA) biochemical activity, H1047R mutant (ADP-Glo); conditions: Soy PI lipid substrate, 20 uM ATP
T2 construct: Recombinant, catalytically active human full length PIK3KA Wild-type and H1047R mutant were purchased; 6xHis (N); purchased EMD Millipore Sigma 14-792M
Summary of the method: as §1

[4] = read-out: PI3K-α (PIK3CA) in vitro cell based assay IC50, 0% FBS, 3 hours treatment
[5] = 0% FBS, 3 hours treatment, read-out: PI3K-α (PIK3CA) in vitro cell based assay IC50

Chain of PI3K-α (PIK3CA) in MDA-MB-453 cells (P42336 whole entry): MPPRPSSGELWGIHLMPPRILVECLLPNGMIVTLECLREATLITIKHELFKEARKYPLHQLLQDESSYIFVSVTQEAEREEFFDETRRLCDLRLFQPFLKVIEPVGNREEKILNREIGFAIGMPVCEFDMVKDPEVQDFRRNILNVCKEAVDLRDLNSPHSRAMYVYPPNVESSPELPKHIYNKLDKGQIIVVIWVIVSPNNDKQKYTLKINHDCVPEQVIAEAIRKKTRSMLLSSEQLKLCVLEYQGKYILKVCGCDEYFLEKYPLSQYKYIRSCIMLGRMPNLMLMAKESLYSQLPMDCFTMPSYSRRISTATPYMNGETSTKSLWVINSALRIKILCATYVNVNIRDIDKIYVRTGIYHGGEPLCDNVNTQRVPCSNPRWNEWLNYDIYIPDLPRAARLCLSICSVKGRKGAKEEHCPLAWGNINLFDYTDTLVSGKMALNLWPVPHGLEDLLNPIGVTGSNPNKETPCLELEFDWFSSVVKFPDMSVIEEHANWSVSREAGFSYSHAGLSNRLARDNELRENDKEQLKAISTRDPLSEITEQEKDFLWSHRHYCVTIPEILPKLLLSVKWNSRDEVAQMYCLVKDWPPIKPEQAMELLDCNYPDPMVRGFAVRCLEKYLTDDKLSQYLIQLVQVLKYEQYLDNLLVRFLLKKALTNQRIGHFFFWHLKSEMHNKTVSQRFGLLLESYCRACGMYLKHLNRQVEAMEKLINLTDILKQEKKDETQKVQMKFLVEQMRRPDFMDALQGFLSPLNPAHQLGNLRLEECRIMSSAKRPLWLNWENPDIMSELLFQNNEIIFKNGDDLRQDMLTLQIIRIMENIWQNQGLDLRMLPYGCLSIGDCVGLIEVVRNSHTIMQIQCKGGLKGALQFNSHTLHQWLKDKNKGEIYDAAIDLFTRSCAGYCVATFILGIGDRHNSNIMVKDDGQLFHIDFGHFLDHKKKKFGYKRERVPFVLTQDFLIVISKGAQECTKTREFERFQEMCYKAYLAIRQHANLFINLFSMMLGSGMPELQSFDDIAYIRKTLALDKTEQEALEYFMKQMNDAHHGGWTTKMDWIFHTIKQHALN
Chain of PI3K-α (PIK3CA) in MDA-MB-453 cells (P27986 2-724, further chain): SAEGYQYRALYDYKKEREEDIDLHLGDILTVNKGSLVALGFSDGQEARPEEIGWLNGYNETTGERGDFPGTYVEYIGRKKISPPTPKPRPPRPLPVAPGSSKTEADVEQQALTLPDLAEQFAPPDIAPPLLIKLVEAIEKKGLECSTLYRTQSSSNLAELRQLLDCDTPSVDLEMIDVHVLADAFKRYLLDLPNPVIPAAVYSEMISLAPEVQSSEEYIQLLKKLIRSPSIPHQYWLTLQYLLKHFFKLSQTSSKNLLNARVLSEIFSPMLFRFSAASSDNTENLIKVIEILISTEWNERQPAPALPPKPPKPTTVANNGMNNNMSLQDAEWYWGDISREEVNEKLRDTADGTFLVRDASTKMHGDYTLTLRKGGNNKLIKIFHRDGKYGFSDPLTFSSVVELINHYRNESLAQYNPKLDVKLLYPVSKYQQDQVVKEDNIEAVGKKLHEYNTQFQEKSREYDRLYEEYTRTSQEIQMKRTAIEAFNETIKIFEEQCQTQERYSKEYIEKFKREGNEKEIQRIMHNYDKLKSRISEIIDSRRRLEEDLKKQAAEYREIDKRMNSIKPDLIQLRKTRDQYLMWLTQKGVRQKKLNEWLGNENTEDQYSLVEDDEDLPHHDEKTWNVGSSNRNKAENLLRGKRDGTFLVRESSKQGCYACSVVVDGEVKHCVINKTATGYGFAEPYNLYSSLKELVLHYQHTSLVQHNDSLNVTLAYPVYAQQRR
T2 sequence (P42336 whole entry H1047R): as the sequence (P42336 whole entry) above, with H1047R counted along it
T2 sequence (P27986 whole entry partner): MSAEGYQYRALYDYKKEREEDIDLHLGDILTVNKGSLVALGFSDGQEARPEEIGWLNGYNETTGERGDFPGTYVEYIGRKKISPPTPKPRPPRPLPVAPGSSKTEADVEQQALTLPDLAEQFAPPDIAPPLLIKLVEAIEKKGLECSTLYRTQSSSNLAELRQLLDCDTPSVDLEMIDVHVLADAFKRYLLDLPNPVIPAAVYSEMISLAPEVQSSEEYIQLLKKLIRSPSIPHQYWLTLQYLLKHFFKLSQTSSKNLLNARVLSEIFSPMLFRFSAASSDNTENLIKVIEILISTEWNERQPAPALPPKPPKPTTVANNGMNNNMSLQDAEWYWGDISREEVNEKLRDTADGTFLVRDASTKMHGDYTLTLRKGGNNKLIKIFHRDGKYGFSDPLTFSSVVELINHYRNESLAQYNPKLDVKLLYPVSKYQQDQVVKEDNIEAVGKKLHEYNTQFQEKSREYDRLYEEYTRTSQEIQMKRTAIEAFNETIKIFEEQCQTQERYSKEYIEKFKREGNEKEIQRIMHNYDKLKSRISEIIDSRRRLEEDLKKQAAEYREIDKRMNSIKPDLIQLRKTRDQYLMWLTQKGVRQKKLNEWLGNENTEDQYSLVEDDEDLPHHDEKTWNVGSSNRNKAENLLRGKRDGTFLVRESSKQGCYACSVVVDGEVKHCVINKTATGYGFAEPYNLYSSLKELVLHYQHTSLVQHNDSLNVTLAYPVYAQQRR

pIC50 [1, 5] | Structure (SMILES) | pIC50 [1, 4] | pIC50 [2] | pIC50 [3]
– | Cc1cc(C(C)Nc2ccccc2C(=O)O)c2oc(-c3cc(C)n[nH]3)cc(=O)c2c1 (single isomer, unassigned) [Example 75, 2-[1-[6-Methyl-2-(3-methyl-1H-pyrazol-5-yl)-4-oxo-chromen-8-yl]ethylamino]benzoic acid, Isomer 2,2,2,2-trifluoroacetic acid] | 7.00 to 7.30 | 5.00 to 5.30 | > 6.30
– | COc1ccc(-n2cc(-c3cc(=O)c4cc(C)cc(C(C)Nc5ccccc5C(=O)O)c4o3)cn2)cc1 (single isomer, unassigned) [Example 79, 2-[1-[2-[1-(4-Methoxyphenyl)pyrazol-4-yl]-6-methyl-4-oxo-chromen-8-yl]ethylamino]benzoic acid, Isomer 2,2,2,2-trifluoroacetic acid] | 7.00 to 7.30 | 5.30 to 6.00 | > 6.30
– | Cc1cc(C(C)Nc2ccccc2C(=O)O)c2oc(-c3cnn(-c4ccccc4)c3)cc(=O)c2c1 (single isomer, unassigned) [Example 80, 2-[1-[6-Methyl-4-oxo-2-(1-phenylpyrazol-4-yl)chromen-8-yl]ethylamino]benzoic acid, Isomer 2,2,2,2-trifluoroacetic acid] | > 7.30 | 5.00 to 5.30 | > 6.30
– | COc1ccc(-n2cc(-c3cc(=O)c4cc(C)cc(C(C)Nc5ccccc5C(=O)O)c4o3)cn2)cn1 (single isomer, unassigned) [Example 81, 2-[1-[2-[1-(6-Methoxy-3-pyridyl)pyrazol-4-yl]-6-methyl-4-oxo-chromen-8-yl]ethylamino]benzoic acid, Isomer 2,2,2,2-trifluoroacetic acid] | 7.00 to 7.30 | 5.00 to 5.30 | 6.00 to 6.30
– | Cc1cc(C(C)Nc2ccccc2C(=O)O)c2oc(-c3cnn(-c4ccc(C#N)nc4)c3)cc(=O)c2c1 (single isomer, unassigned) [Example 82, 2-[1-[2-[1-(6-Cyano-3-pyridyl)pyrazol-4-yl]-6-methyl-4-oxo-chromen-8-yl]ethylamino]benzoic acid, Isomer 2,2,2,2-trifluoroacetic acid] | 7.00 to 7.30 | 5.30 to 6.00 | > 6.30
– | Cc1cc(C(C)Nc2ccccc2C(=O)O)c2oc(-c3cnn(-c4ccc(C#N)cn4)c3)cc(=O)c2c1 (single isomer, unassigned) [Example 83, 2-[1-[2-[1-(5-Cyano-2-pyridyl)pyrazol-4-yl]-6-methyl-4-oxo-chromen-8-yl]ethylamino]benzoic acid, Isomer 2,2,2,2-trifluoroacetic acid] | 7.00 to 7.30 | < 5.00 | > 6.30
– | Cc1cc(C(C)Nc2ccccc2C(=O)O)c2oc(-c3cnn(-c4ccc(C#N)c(F)c4)c3)cc(=O)c2c1 (single isomer, unassigned) [Example 85, 2-[1-[2-[1-(4-Cyano-3-fluoro-phenyl)pyrazol-4-yl]-6-methyl-4-oxo-chromen-8-yl]ethylamino]benzoic acid, Isomer 2,2,2,2-trifluoroacetic acid] | 6.30 to 7.00 | 5.30 to 6.00 | > 6.30
– | COc1ccc(-n2cc(-c3cc(=O)c4cc(C)cc(C(C)Nc5ccccc5C(=O)O)c4o3)cn2)cc1C#N (single isomer, unassigned) [Example 86, 2-[1-[2-[1-(3-Cyano-4-methoxy-phenyl)pyrazol-4-yl]-6-methyl-4-oxo-chromen-8-yl]ethylamino]benzoic acid, Isomer 2,2,2,2-trifluoroacetic acid] | 6.30 to 7.00 | 5.30 to 6.00 | > 6.30
– | Cc1cc(C(C)Nc2ccccc2C(=O)O)c2oc(-c3ccc(C4(C#N)CC4)nc3)c(C)c(=O)c2c1 (single isomer, unassigned) [Example 89, 2-[1-[2-[6-(1-Cyanocyclopropyl)-3-pyridyl]-3,6-dimethyl-4-oxo-chromen-8-yl]ethylamino]benzoic acid, Isomer 1,2,2,2-trifluoroacetic acid] | > 7.30 | 5.30 to 6.00 | > 6.30
– | Cc1cc(C(C)Nc2ccc(Cl)nc2C(=O)O)c2oc(-c3ccccn3)c(C)c(=O)c2c1 (single isomer, unassigned) [Example 121, 6-Chloro-3-[1-[3,6-dimethyl-4-oxo-2-(2-pyridyl)chromen-8-yl]ethylamino]pyridine-2-carboxylic acid, Isomer 1,2,2,2-trifluoroacetic acid] | > 7.30 | 5.30 to 6.00 | > 6.30
– | Cc1cc(C(C)Nc2ccccc2C(=O)O)c2oc(-c3cn(-c4ccc(C#N)cc4)nn3)cc(=O)c2c1 (single isomer, unassigned) [Example 124, 2-[1-[2-[1-(4-Cyanophenyl)triazol-4-yl]-6-methyl-4-oxo-chromen-8-yl]ethylamino]benzoic acid, Isomer 2,2,2,2-trifluoroacetic acid] | 7.00 to 7.30 | 5.30 to 6.00 | > 6.30
– | Cc1cc(C(C)Nc2ccccc2C(=O)O)c2oc(-c3cncc(C#N)c3)c(C)c(=O)c2c1 (single isomer, unassigned) [Example 125, 2-[1-[2-(5-Cyano-3-pyridyl)-3,6-dimethyl-4-oxo-chromen-8-yl]ethylamino]benzoic acid, Isomer 1,2,2,2-trifluoroacetic acid] | > 7.30 | 6.00 to 6.30 | > 6.30
– | Cc1cc(C(C)Nc2ccccc2C(=O)O)c2oc(-c3cnc(-c4ccccc4)s3)c(C)c(=O)c2c1 (single isomer, unassigned) [Example 126, 2-[1-[3,6-Dimethyl-4-oxo-2-(2-phenylthiazol-5-yl)chromen-8-yl]ethylamino]benzoic acid, Isomer 1,2,2,2-trifluoroacetic acid] | 7.00 to 7.30 | > 6.30 | > 6.30
– | Cc1cc(C(C)Nc2ccccc2C(=O)O)c2oc(-c3cncc(-n4cccn4)c3)c(C)c(=O)c2c1 (single isomer, unassigned) [Example 127, 2-[1-[3,6-Dimethyl-4-oxo-2-(5-pyrazol-1-yl-3-pyridyl)chromen-8-yl]ethylamino]benzoic acid, Isomer 1,2,2,2-trifluoroacetic acid] | > 7.30 | 5.30 to 6.00 | > 6.30
< 6.30 | COc1ccc(-c2cc(=O)c3cc(C)cc(C(C)Nc4ccccc4C(=O)O)c3o2)cn1 (single isomer, unassigned; isomer 1) [Example 19, 2-[1-[2-(6-Methoxy-3-pyridyl)-6-methyl-4-oxo-chromen-8-yl]ethylamino]benzoic acid, Isomer 1] | – | < 5.00 | 5.00 to 5.30
< 6.30 | COc1cccc(-c2cc(=O)c3cc(C)cc(C(C)Nc4ccccc4C(=O)O)c3o2)n1 (single isomer, unassigned; isomer 1) [Example 21, 2-[1-[2-(6-Methoxy-2-pyridyl)-6-methyl-4-oxo-chromen-8-yl]ethylamino]benzoic acid, Isomer 1] | – | < 5.00 | 5.00 to 5.30
